Where a SMILES comes first, the peptide text is derived from it. The star is where a group is joined. Cbz = O=C(OCc1ccccc1)*
Assays:
[1] = tested on: LNCaP cells; experiment: PSA secretion, ELISA of culture supernatant; type: cell-based; settings: for DHT-induced PSA production / PSA production under androgen-free conditions: 20 μM, 48 hr; for PSA production under androgen-free conditions: no DHT
Description: PSA in the culture supernatant is determined by using an enzyme-linked immunosorbent assay (ELISA) kit. PSA levels are normalized by cell density.

[2] = tested on: LNCaP cells; experiment: Cellular PSA and AR protein, western blotting; type: cell-based
Description: In FIG. 6, cellular PSA and AR are analyzed by western blotting androgen-starved LNCaP cells.

[3] = tested on: LNCaP-ARR2-GFP cells; experiment: AR-regulated GFP expression in LNCaP-ARR2-GFP cells; type: cell-based; settings: for GFP expression (AR agonist activity): SMEM, absence of DHT, DL3 at 25 nM or 20 μM; for cell growth: LNCaP-ARR2-GFP cells
[4] = tested on: LNCaP cells (mutant AR, H877A); experiment: LNCaP cell growth, MTT staining; type: cell-based
Text: (§1) Viable cells are stained with MTT (3-(4,5-dimethylthiazol-2-yl)-2,5-diphenyltetrazolium bromide). *, **, and *** designate p<0.05, <0.01, and 0.001, respectively, compared with controls.

[5] = tested on: LNCaP cells; experiment: PSA and AR mRNA expression, RT-PCR; type: cell-based; settings: 24 hr; for expression of AR mRNA: 20 μM DL3 or Bical
Description: In FIG. 7 LNCaP or 22Rv1 cells (A) are treated for 24 hr with DL3 and total RNA is extracted and analyzed by real-time RT-PCR. […] PSA mRNA in LNCaP cells is approximately 20 fold higher than that in 22Rv1 cells (FIG. 7A).

[6] = tested on: LNCaP cells; experiment: Cell cycle distribution and apoptosis, flow cytometry (propidium staining) and western blotting; type: cell-based; settings: for increase of the portion of cells in G1 phase of cell cycle: regardless of presence or absence of DHT
Description: To further appreciate the effects of DL3 on cell growth, cell cycle distribution is determined using the flow cytometry analysis. After incubation of LNCaP cells for 24 hr in SMEM, the majority of cells are in the G1 phase of cell cycle. […] The cell cycle distribution is examined by the propidium staining method. […] Thus, DL3 induces GI arrest of prostate cancer cells in short term culture.

[7] = tested on: LNCaP cells; experiment: AR protein stability and hsp70/hsp90 expression, western blotting; type: cell-based
Description: Cell lysates are prepared and analyzed by western blotting. […] To further determine how DL3 downregulates AR, LNCaP cells are incubated for 24 hr with DL3 in the absence or presence of proteasome inhibitor MG132.
Hsp70 and hsp90 are key molecular chaperones in cells. Along with several co-chaperones, hsp70 and hsp90 play critical roles in folding and assembling AR to a high-affinity ligand binding conformation and in regulating AR activation that occurs following hormone binding. Therefore, the possibility of whether the downregulation of AR protein by DL3 is mediated by its effects on hsp70 or hsp90 expression is investigated.
Thus, the effects of DL3 on hsp70 expression are further investigated in several other prostate cancer cell lines, including LAPC-4 (wildtype AR), 22Rv1 (mutant AR), and AR-negative cell lines PC-3, DU-145, PWE1-NB14 (ATCC), and PWE1-NB26 (ATCC). […] In FIG. 10, LAPC-4 (in SMEM) and all other (in CMEM) cells are treated for 24 hr and analyzed by western blotting. LNCaP cells are transfected for 24 hr with hsp70 or its control vector, then treated for 24 hr.

[8] = tested on: human PSA gene promoter; experiment: PSA promoter luciferase reporter (pGL3-PSA-luc) in LNCaP cells; settings: 1 nM DHT, 24 hr
[9] = tested on: LNCaP cells; experiment: PSA and AR mRNA expression, RT-PCR; type: cell-based; settings: 6 hr
[10] = tested on: LNCaP-Flut-R cells; experiment: PSA secretion, ELISA of culture supernatant; type: cell-based; settings: 1 nM DHT, 10 μM, 48 hr (FIG. 5D)
Description: (§2) For the following discussion, see FIG. 5, where androgen-starved LNCaP, LNCaP-Flut-R, or LNCaP-Nilut-R cells are plated into 96-well plates at 2×10^4 cells/wells in SMEM and treated for 48 hr. PSA in the culture supernatant is determined by using an enzyme-linked immunosorbent assay (ELISA) kit. PSA levels are normalized by cell density. […] The DHT-induced production of PSA is reduced by approximately 50% in cells treated with 5 μM of DL3 (FIG. 5B). […] PSA production is elevated in LNCaP-Flut-R and LNCaP-Nilut-R cells compared with that in their parental cells (FIG. 5D).

[11] = tested on: LNCaP-Nilut-R cells; experiment: PSA secretion, ELISA of culture supernatant; type: cell-based; settings: 1 nM DHT, 10 μM, 48 hr (FIG. 5D)
Description: as §2

[12] = tested on: LNCaP-Nilut-R cells; experiment: Growth of Nilut-refractory LNCaP cells, MTT; type: cell-based; settings: 10 μM, 4 days, MTT (FIG. 2F)
Text: as §1

[13] = tested on: LNCaP-Flut-R cells; experiment: Growth of Flut-refractory LNCaP cells, MTT; type: cell-based; settings: 10 μM, 4 days, MTT (FIG. 2F)
Text: as §1

CC(O)(CS(=O)(=O)c1ccc(F)cc1)C(=O)Nc1ccc(C#N)c(C(F)(F)F)c1 (stereo not drawn) [Bical, Bicalutamide, reference compound]
DHT-induced PSA production ([1]; 1 nM DHT): reduce DHT-induced PSA production | PSA production under androgen-free conditions [1]: stimulates PSA production | PSA protein expression under androgen-free culture conditions ([2]; 20 μM, 24 hr): enhances PSA expression | expression of AR protein ([2]; 20 μM, 24 hr (FIG. 6C)): moderately downregulated | DHT-induced PSA protein expression ([2]; SMEM, 24 hr, Flut, Nilut, Bical at 20 μM): moderately reduced | GFP expression (AR agonist activity) [3]: not | effect on DHT-stimulated growth of LNCaP cells [4]: inhibit DHT-stimulated growth of LNCaP cells in a dose-dependent manner | DHT-stimulated PSA mRNA expression ([5]; 20 μM, 1 nM DHT): only partially inhibits | basal level of PSA mRNA ([5]; 20 μM, androgen-starved): no significant effects | expression of AR mRNA ([5]; 1 nM DHT): partially downregulated | increase of the portion of cells in G1 phase of cell cycle ([6]; 24 hr): 15% | induction of apoptosis ([6]; 24 hr, DL3 at 20 μM): does not induce apoptosis | survivin expression and caspase 3 cleavage (western blotting) ([6]; data not shown): alter neither survivin expression nor caspase 3 cleavage

C[C@]12CCC(=O)C[C@@H]1CC[C@@H]1[C@@H]2CC[C@]2(C)[C@@H](O)CC[C@@H]12 [DHT, dihydrotestosterone, reference compound]
PSA production [1]: significantly elevated | expression of hsp70 ([7]; SMEM, 24 hr with DHT or CHX (FIG. 9B, lane 3 or 5 vs. lane 1)): also reduced | expression of AR mRNA ([5]; 1 nM DHT): partially downregulated | enhancement of PSA promoter activity [8]: approximately 5 fold | AR mRNA expression [9]: not significantly altered

CC(C)C(=O)Nc1ccc([N+](=O)[O-])c(C(F)(F)F)c1 [Flut, Flutamide]
increase of the portion of cells in G1 phase of cell cycle ([6]; 24 hr): 15%

O=c1c(-c2ccc(O)cc2)coc2cc(O)cc(O)c12 [Genistein]
cell growth [3]: significantly inhibited cell growth | GFP expression (AR agonist activity) [3]: enhanced GFP expression

CC(C)C[C@@H](C=O)NC(=O)[C@H](CC(C)C)NC(=O)[C@H](CC(C)C)NC(=O)OCc1ccccc1 [MG132, reference compound] (Cbz-Leu-Leu-Leu-aldehyde)
DL3-induced reduction of AR ([7]; 24 hr with DL3 in presence of MG132): reversed

CC1(C)NC(=O)N(c2ccc([N+](=O)[O-])c(C(F)(F)F)c2)C1=O [Nilut, Nilutamide, reference compound]
PSA production in parental LNCaP cells ([1]; 1 nM DHT, 10 μM, 48 hr (FIG. 5D)): enhances PSA production | DHT-induced PSA production ([1]; 1 nM DHT): not | PSA production under androgen-free conditions [1]: stimulates PSA production | PSA production in LNCaP-Flut-R cells [10]: enhances PSA production | PSA production in LNCaP-Nilut-R cells [11]: enhances PSA production | growth of LNCaP-Nilut-R cells [12]: promotes growth | growth of LNCaP-Flut-R cells [13]: promotes growth

O=c1c(O)c(-c2ccc(O)c(O)c2)oc2cc(O)cc(O)c12 [Querstin]
cell growth [3]: significantly inhibited cell growth | GFP expression (AR agonist activity) [3]: enhanced GFP expression

Oc1ccc(/C=C/c2cc(O)cc(O)c2)cc1 [Resveratol]
cell growth [3]: significantly inhibited cell growth | GFP expression (AR agonist activity) [3]: enhanced GFP expression
